Test results: patent US20230158034A1, “CO-TREATMENT WITH CDK4/6 AND CDK2 INHIBITORS TO SUPPRESS TUMOR ADAPTATION TO CDK2 INHIBITORS” (Pfizer Inc., priority 2020, published 2023)

Tests used:
[1] = tested on: CDK2 activity (DHB sensor phosphorylation); test: DHB-based CDK2 activity sensor, single-cell time-lapse imaging (C/N ratio); set-up: species or system human
Source text: The DHB sensor is localized to the nucleus when it is not phosphorylated. Upon phosphorylation, the nuclear localization signal is masked, the nuclear export signal is unmasked, and the sensor steadily translocates to the cytoplasm in response to increasing CDK2 activity (FIG. 1A). Thus, kinase activity can be quantified by the ratio of the cytoplasmic to nuclear fluorescence intensity (C/N ratio) of the DHB sensor. […] Asynchronously cycling cells were first imaged for approximately 20 hr in the absence of drug to establish the cell-cycle phase of each cell; the movie was then paused to add drug, and then imaging was continued for another 1-2 days. Because the cells were cycling asynchronously, all cell-cycle phases with one drug treatment were sampled. This allowed the present inventors to computationally isolate traces for cells that received drug at any time since the completion of anaphase.
Cells were seeded at least 24 hr prior to imaging in phenol-red-free full-growth medium in glass-bottom 96-well plates (CellVis P96-1.5H-N) that were coated with collagen prior to seeding. The seeding density was chosen such that the cells would remain sub-confluent until the end of the imaging period. Cells were first imaged for 16-20 hr in full-growth media without drug. The movie was then briefly paused and the full-growth media was replaced with full-growth media containing drug at the desired concentration. The plate was then re-inserted into the microscope and aligned to its prior position and imaging was continued for an additional 24-48 hr. Images were acquired every 12 min (for MCF10A or RPE-hTERT) or every 20 min (for MCF7 or OVCAR3) on a Nikon Eclipse Ti or Ti2 microscope with a 10×0.45 NA objective in a humidified, 37° C. chamber at 5% CO2. Exposure times for all movies for all channels were kept under 500 ms per timepoint to minimize phototoxicity. Cell tracking was performed using published MATLAB scripts (Cappell et al., 2016), as described previously (Arora et al., 2017). The tracking code is available for download at https://github.com/scappell/Cell_tracking. Cell counts over time were obtained by counting the number of segmented nuclei in each frame of the movie.
Asynchronously cycling cells that divided and received drug treatments during the imaging period were initially segmented into categories based on the cells' time of anaphase relative to the time of drug addition. These cells were then additionally subcategorized based on their DHB cytoplasmic/nuclear (C/N) ratio after the mitotic event. C/N ratio was calculated by quantifying the ratio of cytoplasmic to nuclear mean DHB fluorescence, with the cytoplasmic component calculated as the mean of the top 50th percentile of a ring of pixels outside of the nuclear mask.
Cells were classified as CDK2^inc if the DHB C/N ratio was above 0.5 units 3 hr after anaphase, otherwise they were classified as CDK2^low. Figure legends indicate whether only CDK2^inc cells or whether all cells are plotted. The median of the single-cell traces in a subcategory was then used to create median trace with 95% confidence interval representative of the particular subcategory. All cell trace analysis was done using custom MATLAB scripts and code is available upon request.

[2] = tested on: Kras^+/LSLG12V; Trp53^L/L lung tumors; test: Mouse lung tumor model, tumor volume by CT scans; assay type: in vivo
Description: To test the potential compensatory relationship between CDK2 and CDK4/6 in vivo, an established mouse lung tumor model driven by KRAS^G12V and TRP53 mutations was used. Kras^+/LSLG12V, Trp53^L/L mice intra-nasally infected with adenoviral particles encoding Cre recombinase developed lung tumors with a latency of 5 months. Once tumor development was detected by CT scans, animals were treated with either vehicle or palbociclib (70 mg/kg QD) for 28 days and tumor volumes were subsequently measured by CT scans at the end of the treatment period.
Mice: Kras^+/LSLG12V Trp53^L/L and Cdk2^−/− mice have been previously described (Guerra et al., 2003; Jonkers et al., 2001; Ortega et al., 2003). Compound mice using the following transgenes: Kras^+/LSLG12V, (Guerra et al., 2003); Trp53^L/L (Lee et al., 2012), and Cdk2^−/− (Ortega et al., 2003) were generated for this study. All animal experiments were approved by the Ethical Committees of the Spanish National Cancer Research Centre (CNIO), the Carlos III Health Institute and the Autonomous Community of Madrid (PROEX 270/14) and were performed in accordance with the guidelines stated in the International Guiding Principles for Biomedical Research Involving Animals, developed by the Council for International Organizations of Medical Sciences (CIOMS). Mice were housed in specific-pathogen-free conditions at CNIO's Animal Facility (AAALAC, JRS:dpR 001659). Female and male mice were used for the experiments. All mice were genotyped at the CNIO's Genomic Unit. […]
Micro CT imaging: Image studies were done by the Molecular Imaging Core Unit at the CNIO. […] Tumor volume was calculated as follows: (short axis x short axis x long axis/2).
Pharmacological treatment in mice: Kras^+/LSLG12V; Trp53^L/L; Cdk2^−/− and Kras^+/LSLG12V; Trp53^L/L; Cdk2^+/+ mice were infected with 10^6 pfu of Ad-Cre. Once tumors were detected by CT, mice harboring at least one tumor bigger than 3 mm^3 were enrolled in the different treatment groups. […] Drug efficacy was monitored by CT measurements.

[3] = PF3600, MCF10A, MCF7 and RPE-hTERT cells

| SMILES | DHB sensor phosphorylation behavior ([1]; 25 nM PF3600, MCF7) | DHB sensor phosphorylation behavior ([1]; 100 nM PF3600, MCF7) | cells that initially responded ([1]; PF3600) [%] | rebound of DHB sensor phosphorylation ([1]; PF3600, OVCAR3 cells) | onset of rebound in DHB sensor phosphorylation [1, 3] [h] | time until DHB sensor phosphorylation returned to pre-treatment levels [1, 3] [h] | tumor volumes ([2]; PF3600 50 mg/kg BID for 4 weeks, Trp53^L/L mice) | effect on DHB sensor phosphorylation, cell-cycle progression, or the timing of mitosis ([1]; 1 μM palbociclib added 5 hr or later after anaphase/mitosis, MCF10A) | tumor size ([2]; palbociclib 70 mg/kg QD for 4 weeks, Trp53^L/L, Cdk2^−/− mice, p=0.037) | tumor volume fold change vs vehicle ([2]; palbociclib 70 mg/kg QD for 28 days, Trp53^L/L mice (Cdk2^+/+)) |
| --- | --- | --- | --- | --- | --- | --- | --- | --- | --- | --- |
| C[C@@]1(O)CCC[C@H]1n1c(=O)c(C(F)F)cc2cnc(NC3CCN(S(C)(=O)=O)CC3)nc21 [PF3600, 6-(difluoromethyl)-8-[(1R,2R)-2-hydroxy-2-methylcyclopentyl]-2-{[1-(methylsulfonyl)-piperidin-4-yl]amino}pyrido[2,3-d]pyrimidin-7(8H)-one] | drop-rebound behavior | brief rebound followed by long-lived suppression of DHB phosphorylation | 100 | did not rebound | 1 to 2 | ≤ 5 | significantly reduced tumor volumes |  |  |  |
| CC(=O)c1c(C)c2cnc(Nc3ccc(N4CCNCC4)cn3)nc2n(C2CCCC2)c1=O [palbociclib] |  |  |  |  |  |  |  | no immediate effect | significantly reduced tumor size | no significant reduction in tumor burden |
